# Measured values from patent US20220283158A1, “METHOD OF IDENTIFYING PEPTIDE ANTIGENS AND USES THEREOF” (HUMANIRAS MIRASOLE S.P.A., priority 2019, published 2022).
# Test system: C57BL6/J 8-week-old male mice
# Assay: Immunization of healthy mice with single peptides in adjuvant, echocardiography of heart functionality
# Assay type: in vivo, mouse
# Conditions: s.c. 100 μg peptide in CFA day 0, boost in IFA day 21; echocardiography at 2, 5 and 9 weeks; versus CTR- (only CFA)
# Description: C57BL6/J 8-week-old male mice were screened at baseline for heart functionality, via echocardiography, and randomly divided into 5 experimental groups. Mice belonging to control group (CTR-, only CFA) were injected subcutaneously (immunized, but without antigen: negative control) with 100 μl Complete Freud's Adjuvant (CFA) at day 0 and boosted with 100 μl of Incomplete Freud's Adjuvant (IFA) on day 21. Mice belonging to group 3 (CTR+) were injected subcutaneously (immunized, known antigen: positive control) with 100 μg of each of the three peptides (SEQ ID NOs. 15-17) derived from beta-adrenergic receptor and listed in the Table of FIG. 4, emulsified in Complete Freud's Adjuvant (CFA) at day 0 and boosted with 100 μg of the three peptides emulsified in Incomplete Freud's Adjuvant (IFA) on day 21. Mice belonging to group 4_A (Peptide 4_A) were injected subcutaneously (immunized) with 100 μg of the peptide of SEQ ID NO. 1, derived from 14-3-3 protein, emulsified in Complete Freud's Adjuvant (CFA) at day 0 and boosted with 100 μg of each of the three peptides emulsified in Incomplete Freud's Adjuvant (IFA) on day 21. Mice belonging to group 4_B (Peptide 4_B) were injected subcutaneously (immunized) with 100 μg of the peptide of SEQ ID NO. 5, derived from Snrpd1 protein, emulsified in Complete Freud's Adjuvant (CFA) at day 0 and boosted with 100 μg of each of the three peptides emulsified in Incomplete Freud's Adjuvant (IFA) on day 21. Mice belonging to group 4_C (Peptide 4_C) were injected subcutaneously (immunized) with 100 μg of the peptide of SEQ ID NO. 14, derived from Atp5o protein, emulsified in Complete Freud's Adjuvant (CFA) at day 0 and boosted with 100 μg of each of the three peptides emulsified in Incomplete Freud's Adjuvant (IFA) on day 21. On day 0 and day 2, all the mice were intraperitoneally injected with 200 ng of Pertussis Toxin. Heart functionality of all mice was analyzed via echocardiography at 2, 5 and 9 weeks after the first subcutaneous injection. In FIG. 7, the results of echocardiography analysis of cardiac functionality parameters % FS and % EF of C57BL6/J mice immunized with the peptide of SEQ ID NO. 1 (14-3-3 protein), the peptide of SEQ ID NO. 5 (Snrpd1 protein), or the peptide of SEQ ID NO. 14 (Atp5o protein) are shown. […] Data are plotted as mean±SEM, (n=4-6). Two-way ANOVA and Tukey's multiple comparison test with matching subjects. * p<0.05, ** p<0.01, ***p<0.001.
Substance,% EF,% FS
"Peptide 4_C: peptide of SEQ ID NO. 14, derived from Atp5o protein (LTANLMNLLAENGRL; listed as Mus musculus)",significantly reduced,significantly reduced
"Peptide 4_B: peptide of SEQ ID NO. 5, derived from Snrpd1 protein (EPVQLETLSIRGNNIRYFILPDSLP; listed as Homo sapiens)",significantly reduced,significantly reduced
"Peptide 4_A: peptide of SEQ ID NO. 1, derived from 14-3-3 protein (LGLALNFSVFYYEIL; listed as Homo sapiens)",significantly reduced,significantly reduced
